Like-named read-outs stand apart in the source and are kept apart here.
Assays:
human fibroblasts = details: cited from earlier work
[1] = tested on: Methicillin-resistant Staphylococcus aureus—MRSA (Clinical isolate); assay: Antimicrobial challenge test (time-kill) in 95% TSB, concentrated media and silver; format: cell-based; details: throughout the duration of the testing (3 and 6 hours), 100% oxygen headspace, no silver
Procedure: In the first sample, 10 ml of 95% tryptic soy broth (TSB) was inoculated with approximately 10^5 CFU of Methicillin-resistant Staphylococcus aureus—MRSA (Clinical isolate). […] Each test sample was then incubated at 37° C.; the level of surviving organisms was tested after 3 hours and 6 hours for each.
The challenge organism (MRSA Clinical isolate) was prepared by culturing in Soybean-Casein digest broth (TSB) at 35° C. for 18 to 24 hrs to an approximate concentration of 1.8×10^9 CFU per ml. • 2. For the challenge tests: 0.01 ml of the stock culture was added into a 50 ml screw top test tube and then diluted to 10 ml with 95% TSB broth to a final concentration of 1.8×10^6 CFU/ml. • 3. […] Silver Challenge test: To a test tube prepared as described from step 2; 100 μl of 30% wt/wt AgNO3 was added and vortexed to mix for a final concentration of 0.3% AgNO3. • b. Silver+O2 challenge test: To a test tube prepared as described from step 2; 100 μl of 30% wt/wt AgNO3 solution was added and vortexed to mix for a final concentration of 0.3% AgNO3. […] The samples were then incubated at 37° C. for both 3 and 6 hours. • d. At the 3 and 6 hour time point the samples were plated at different dilutions (10^−1, 10^−3, and 10^−5) to enumerate the surviving colonies. • i. The 3 hour samples was re-purged with 02 gas and returned to the incubating oven for an additional 3 hours. • ii. […]

[2] = tested on: Pseudomonas aeruginosa (ATCC 9027); format: cell-based; details: 37° C., 0.03 ppm silver (from silver nitrate), 5% TSB, based on time zero plate count
Procedure: Each test sample was then incubated at 37° C.; the level of surviving organisms was tested after 3 hours and 6 hours for each.
The challenge organism (Pseudomonas aeruginosa ATCC 9027) was prepared by culturing in Soybean-Casein digest broth (TSB) at 35° C. for 18 to 24 hrs to an approximate concentration of 1.8×10^8 CFU per ml. • 2. For the challenge tests: 0.01 ml of the stock culture was added into a 50 ml screw top test tube and then diluted to 10 ml with 5% TSB broth to a final concentration of 1.8×10^5 CFU/ml. • 3. […] Silver Challenge test: To a test tube prepared as described from step 2; 100 μl of 3 ppm AgNO3 was added and vortexed to mix for a final concentration of 0.03 ppm AgNO3. • b. Silver+O2 challenge test: To a test tube prepared as described from step 2; 100 μl of 3 ppm Ag+ (from AgNO3) solution was added and vortexed to mix for a final concentration of 0.03 ppm AgNO3. […] The samples were then incubated at 37° C. for both 3 and 6 hours. • d. At the 3 and 6 hour time point the samples were plated at different dilutions (10^−1, 10^−3, and 10^−5) to enumerate the surviving colonies. • i. The 3 hour samples were re-purged with 02 gas and returned to the incubating oven for an additional 3 hours. • ii. The media used for plating was Trypticase soy agar (TSA). • e. The plates were incubated for 2 to 3 days before counting. • f. […]

[Ag+] [Ionic silver]
concentration cytotoxic to human fibroblasts (human fibroblasts): 1 parts per million

O=O [Sample 4, oxygen gas]
change in the amount of colony forming units [1]: increase

silver nitrate [Sample 1]
log reduction in the number of CFU ([2]; after 3 hours): 2 log
log reduction in the number of CFU ([2]; after 6 hours): 3 log
